Entries after “also recorded” stand apart in the source; their conditions may differ.
Assays:
[1] = test system: rabbit corpus cavernosum; test: Effect on electrical field stimulation (EFS)-induced relaxation; type: cell-based
Method: Male New Zealand White rabbits (2.0-3.0 Kg) were killed by cervical dislocation. The abdominal cavity was opened and the penis excised, starting at the base of the organ at the pelvic bones. The corpus cavernosum was carefully dissected free from the surrounding tunica albuginea—2 tissue strips, approximately 10 mm×3 mm×2 mm in size, were obtained from each penis. The dissection was carried out in Krebs Ringer Solution. Tissues were used on the day of harvest.
The strips of corpus cavernosum and were mounted with surgical suture in 5 ml Wesley & Co. organ baths, and immersed in Kreb's solution maintained at 37° C. and aerated with 5% CO2/95% O2 to attain pH 7.4. The suture was connected to a force displacement transducer (Maywood Instruments Ltd.) and changes in isometric tension were recorded on the DART in vitro computer package. The tissues were put under an initial resting tension of 1.5 g and allowed to equilibrate for 1 hour. During equilibration, the tissues were rinsed at 5 ml/min. The approximate tissue tension after equilibration was 1 g. The tissues were then sensitised to contraction with phenylephrine (PE) (10 μM) and KCl (120 mM), and relaxation with sodium nitroprusside (SNP) (100 μM).
Tissues were bathed in “normal” Kreb's containing 5 μM guanethidine and 1 μM atropine, to block NA release and receptors respectively. EFS was delivered by a MS3 stimulator connected to 2 platinum electrodes which were placed at the top and bottom of the organ chambers. EFS parameters are as follows: Voltage=45-65V, Frequency=2-32 Hz, Pulse Width=0.2 ms, Train Duration=10 s. […] An EFS curve involved stimulating PE-contracted tissues at 2 Hz, 4 Hz, 8 Hz, 16 Hz and 32 Hz, and the degree of relaxation was measured by taking the minimum reading from the maximum reading obtained over a 30 s period. […]
For each dose response curve, the relaxation responses are expressed as a percentage of the PE-induced contraction. […] For EFS response curves, the degree of relaxation was expressed as a percentage of the PE-induced contraction. […]

[2] = Blood pressure in vivo
[3] = test system: rabbit aorta; test: Selectivity of EBIO for corpus cavernosum over cardiovascular tissue (isolated aorta); type: cell-based; settings: in vitro
Method: PE (1 μM) or 80 mM K^+ contracted rabbit aorta sections were subjected to half-log unit cumulative additions of EBIO (10 nM-1 mM) with approximately 10 minute intervals between each addition.
For each dose response curve, the relaxation responses are expressed as a percentage of the PE-induced contraction. The mean values±s.e. mean are then plotted against log[drug] concentration. Sigmoidal curves were fitted to the data using Origin curve fitting computer package. For the purpose of curve fitting, the minimum relaxation response is constrained to 0% and the maximum relaxation response is allowed to free fit. For EFS response curves, the degree of relaxation was expressed as a percentage of the PE-induced contraction. These values were then plotted against the frequency of stimulation.

[4] = test system: rabbit corpus cavernosum; test: Direct relaxant effect of EBIO on contracted corpus cavernosum strips in organ baths; type: cell-based
[5] = test system: rabbit corpus cavernosum; test: Effect of EBIO on cGMP-mediated (SNP-induced) relaxation; type: cell-based; settings: EBIO 50 μM; SNP dose response
[6] = test system: rabbit corpus cavernosum; test: Mechanism of EBIO-induced relaxation (L-NOARG incubation, endothelium removal); type: cell-based; settings: PE (10 μM) contracted

Row | Compound | effect on EFS-induced relaxation of PE-contracted corpus cavernosum ([1]; EBIO 50 μM, 2-32 Hz) | effect on blood pressure in vivo [2] | concentrations at which a relaxant effect on rabbit aorta occurs [3] | relaxant effect on rabbit aorta ([3]; PE (1 μM) or 80 mM K+ contracted, concentrations up to 100 μM) | IC20 ([4]; Oryctolagus cuniculus, relaxation of rabbit corpus cavernosum) | relaxation of PE-contracted rabbit corpus cavernosum ([4]; PE (10 μM) contracted, EBIO 10 nM-1 mM cumulative, in vitro) | concentrations at which basal tone is suppressed ([4]; rabbit corpus cavernosum basal tone) | effect on SNP-induced relaxation of PE-contracted corpus cavernosum [5] | EBIO-induced relaxation in the presence of L-NOARG (NOS inhibitor) ([6]; L-NOARG) | EBIO-induced relaxation in endothelium deprived corpus cavernosum ([6]; endothelium removed) | effect of ChTX on EBIO-induced potentiation of EFS-induced relaxation ([1]; ChTX 100 nM with EBIO 50 μM) | attenuation of endogenous NO-mediated (EFS-induced) relaxation ([1]; ChTX 100 nM, across the frequency range)
1 | CCn1c(=O)[nH]c2ccccc21 [EBIO, 1-ethyl-2-benzimidazolinone] | greatly potentiates; also recorded: enhanced | no effect | ≥ 100 µM | no relaxant effect | ~50 µM | concentration-dependent relaxation; also recorded: concentration dependent relaxation | ≥ 10 µM | potentiates; also recorded: enhanced | still observed | still observed; also recorded: not affected |  | 
2 | charybdotoxin [ChTX] |  |  |  |  |  |  |  |  |  |  | caused a reduction; also recorded: sensitive | up to 30%
